We go through two substances from patent US20230024554A1, “METHOD OF CHARACTERIZING THE BINDING CHARACTERISTICS BETWEEN A PEPTIDE OF INTEREST AND MHC MOLECULES” (Immatics Biotechnologies GmbH, priority 2021, published 2023).

In one assay the test system is T2 cells. The assay can be described thus: Peptide loading of T2 cells with KLK3 peptide isotopologues; absolute pMHC copy numbers by BB7.2 immunoprecipitation and LC/MS. It counts as cell-based, human. The conditions noted are these: T2 cells loaded at 0.1 μg/mL (~81 nM) peptide, 2 h incubation. The protocol: In order to translate detected relative ion intensities into an absolute measure, isotopologue-specific external calibration curves were acquired in two technical replicates. Therefore, a total of six different isotopologues (Table 1; reconstituted as described above) were mixed to a final concentration of 20 pmol μL^−1. This stock was subsequently further titrated in 5% formic acid prior to LC/MS analysis. The internal standard KLK3 peptide_L2P5 was added at a constant amount of 5 fmol per LC/MS injection. Samples were separated by reversed-phase chromatography (nanoAcquity UPLC, Waters, Milford, Mass.) using ACQUITY UPLC BEH C18 columns (75 μm×250 mm, Waters, Milford, Mass.) and a gradient ranging from 1 to 34.5% ACN over the course of 35 min. Mass spectrometry was performed on an online coupled Orbitrap Fusion Tribrid mass spectrometer (Thermo Fisher Scientific, Waltham, Mass.) in scheduled parallel reaction monitoring (sPRM) mode following collisional-induced dissociation (CID) of selected precursor ions. Subsequent peak boundary integration was performed in Skyline (MacLean et al., 2010).
The T2 cell line was obtained from DSMZ (ACC 598, lot #2). Cells were cultured in RPMI-1640 medium (Gibco, #A1049101) supplemented with 10% heat-inactivated FBS (Gibco, #10270106) in absence of antibiotics, at 37° C. in a humidified atmosphere containing 5% C02. […]

For a further assay, the system named is Hs695T cells. The assay can be described thus: Peptide loading of Hs695T cells with PRAME peptide isotopologues; absolute copy numbers by AbsQuant (immunoprecipitation and LC/MS). It counts as cell-based. Particulars: peptide-loaded Hs695T cells; 1 nM is ~0.001 μg/mL. On the procedure: (§1) In order to translate detected relative ion intensities into an absolute measure, isotopologue-specific external calibration curves were acquired in two technical replicates. Therefore, a total of seven different isotopologues (Table 2; reconstituted as described above) were mixed to a final concentration of 20 pmol μL^−1. This stock was subsequently further titrated in 5% formic acid prior to LC/MS analysis. The internal standard PRAME peptide_L3L6 was added at a constant amount of 100 fmol per LC/MS injection. Samples were separated by reversed-phase chromatography (nanoAcquity UPLC, Waters, Milford, Mass.) using ACQUITY UPLC BEH C18 columns (75 μm×250 mm, Waters, Milford, Mass.) and a gradient ranging from 1 to 34.5% ACN over the course of 35 min. […]
(§2) The functional analysis of PRAME-loaded T98G cells was assessed in a co-culture setup. […]
(§3) In brief, 2.5×10^7 T98G (or 2×10^7 Hs695T) cells were incubated in 40 ml DMEM+10% FCS supplemented with the respective concentration of peptide for 2 h at 37° C., 5% C02. […] By adding specific substrate, the amount of LDH present in the supernatant was determined by measuring the colorimetric signal in a microplate reader. […]

For the next assay, the system named is T98G cells. The assay can be described thus: Peptide loading of T98G cells with PRAME peptide isotopologues; absolute copy numbers by AbsQuant (immunoprecipitation and LC/MS). Particulars: peptide-loaded T98G cells; 1 nM is ~0.001 μg/mL. It counts as cell-based. On the procedure: as §1, §2, §3

Ends that are not written are not given here.

In the case of SL*F*HPEDTGQV* [KLK3 peptide L2F3V 11], the absolute peptide abundance in the assay on T2 cells is ~10,000 copies per cell. With “SLLQHLIGL (not fully specified; listed as Homo sapiens) [PRAME peptide, PRAME-derived MHC-restricted peptide, loaded as isotopologues]”, the “loading concentration from which copy numbers are detectable” value in the assay with Hs695T cells and in the assay on T98G cells was at least 1 nM throughout.
